Laboratory results: patent publication US9273057B2 (Bristol-Myers Squibb Company, priority 2012, dated 2016)

Target: CK2A1 (CK2α/β) (Homo sapiens, UniProt P68400)
Test: CK2 kinase assay, CK2A1 (CK2α/β)
Type: biochemical
Details: Table A; read-out: CK2A1 (CK2α/β) (IC50)

CK2A1 (CK2α/β), sequence (P68400 whole entry, species assumed): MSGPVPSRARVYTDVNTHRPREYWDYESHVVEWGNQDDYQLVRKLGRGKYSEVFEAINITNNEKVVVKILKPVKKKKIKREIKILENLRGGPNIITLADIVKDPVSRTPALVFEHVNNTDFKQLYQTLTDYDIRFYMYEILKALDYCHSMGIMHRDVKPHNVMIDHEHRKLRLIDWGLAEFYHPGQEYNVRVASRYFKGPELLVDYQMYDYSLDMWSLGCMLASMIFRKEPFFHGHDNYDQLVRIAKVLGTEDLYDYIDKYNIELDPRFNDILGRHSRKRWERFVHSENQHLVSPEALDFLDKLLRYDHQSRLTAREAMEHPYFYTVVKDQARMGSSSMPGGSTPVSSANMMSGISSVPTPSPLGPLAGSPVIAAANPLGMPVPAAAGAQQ
CK2A1 (CK2α/β), sequence (P67870 whole entry partner, species assumed): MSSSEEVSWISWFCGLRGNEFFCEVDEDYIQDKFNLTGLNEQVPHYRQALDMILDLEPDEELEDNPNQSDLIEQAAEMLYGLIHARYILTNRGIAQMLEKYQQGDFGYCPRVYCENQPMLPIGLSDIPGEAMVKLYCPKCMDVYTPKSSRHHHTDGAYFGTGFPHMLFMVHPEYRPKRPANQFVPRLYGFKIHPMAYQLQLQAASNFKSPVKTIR

Row | SMILES | IC50 [nM]
1 | CC(=O)N1CC(N2CCN(c3cc(C#N)cc(Nc4nc(NC5CC5)c5ncc(C#N)n5n4)c3F)CC2)C1 [Example 551, 2-((3-(4-(1-acetylazetidin-3-yl)piperazin-1-yl)-5-cyano-2-fluorophenyl)amino)-4-(cyclopropylamino)imidazo[2,1-f][1,2,4]triazine-7-carbonitrile] | 1.23
2 | N#Cc1cc(Nc2nc(NC3CC3)c3ncc(C#N)n3n2)c(F)c(N2CCN(C3CCOC3)CC2)c1 (centres unmarked) [Example 554, 2-((5-cyano-2-fluoro-3-(4-(tetrahydrofuran-3-yl)piperazin-1-yl)phenyl)amino)-4-(cyclopropylamino)imidazo[2,1-f][1,2,4]triazine-7-carbonitrile] | 5.03
3 | N#Cc1cc(Nc2nc(NC3CC3)c3ncc(C#N)n3n2)c(F)c(N2CCN(C3(C#N)COC3)CC2)c1 [Example 555, 2-((5-cyano-3-(4-(3-cyanooxetan-3-yl)piperazin-1-yl)-2-fluorophenyl)amino)-4-(cyclopropylamino)imidazo[2,1-f][1,2,4]triazine-7-carbonitrile] | 1.23
4 | CCNc1nc(Nc2cc(C#N)cc(N3CCN(C4COC4)CC3)c2F)nn2c(C#N)cnc12 [Example 556, 2-((5-cyano-2-fluoro-3-(4-(oxetan-3-yl)piperazin-1-yl)phenyl)amino)-4-(ethylamino)imidazo[2,1-f][1,2,4]triazine-7-carbonitrile] | 3.68
5 | N#Cc1cnc2c(NC3CC3)nc(Nc3cc(OC(F)F)cc(N4CCN(C5COC5)CC4)c3Cl)nn12 [Example 557, 2-((2-chloro-5-(difluoromethoxy)-3-(4-(oxetan-3-yl)piperazin-1-yl)phenyl)amino)-4-(cyclopropylamino)imidazo[2,1-f][1,2,4]triazine-7-carbonitrile] | 2.05
6 | N#Cc1cnc2c(NC3CC3)nc(Nc3cc(OC(F)F)cc(N4CCNCC4)c3Cl)nn12 [Example 558, 2-((2-chloro-5-(difluoromethoxy)-3-(piperazin-1-yl)phenyl)amino)-4-(cyclopropylamino)imidazo[2,1-f][1,2,4]triazine-7-carbonitrile] | 5.37
7 | CC(=O)N1CC(N2CCN(c3cc(OC(F)F)cc(Nc4nc(NC5CC5)c5ncc(C#N)n5n4)c3Cl)CC2)C1 [Example 559, 2-((3-(4-(1-acetylazetidin-3-yl)piperazin-1-yl)-2-chloro-5-(difluoromethoxy)phenyl)amino)-4-(cyclopropylamino)imidazo[2,1-f][1,2,4]triazine-7-carbonitrile] | 2.37
8 | N#Cc1cnc2c(NC3CC3)nc(Nc3cc(OC(F)F)cc(N4CCN(C5CNC5)CC4)c3Cl)nn12 [Example 560, 2-((3-(4-(azetidin-3-yl)piperazin-1-yl)-2-chloro-5-(difluoromethoxy)phenyl)amino)-4-(cyclopropylamino)imidazo[2,1-f][1,2,4]triazine-7-carbonitrile] | 1.15
9 | CC1(N2CCN(c3cc(OC(F)F)cc(Nc4nc(NC5CC5)c5ncc(C#N)n5n4)c3Cl)CC2)COC1 [Example 561, 2-((2-chloro-5-(difluoromethoxy)-3-(4-(3-methyloxetan-3-yl)piperazin-1-yl)phenyl)amino)-4-(cyclopropylamino)imidazo[2,1-f][1,2,4]triazine-7-carbonitrile] | 2.08
10 | COC(=O)N1CC(N2CCN(c3cc(OC(F)F)cc(Nc4nc(NC5CC5)c5ncc(C#N)n5n4)c3Cl)CC2)C1 [Example 562, methyl 3-(4-(2-chloro-3-((7-cyano-4-(cyclopropylamino)imidazo[2,1-f][1,2,4]triazin-2-yl)amino)-5-(difluoromethoxy)phenyl)piperazin-1-yl)azetidine-1-carboxylate] | 3.33
11 | CN(C)C(=O)C1CN(c2cc(C#N)cc(Nc3nc(NC4CC4)c4ncc(C#N)n4n3)c2Cl)CCN1 (centres unmarked) [Example 563, 4-(2-chloro-5-cyano-3-((7-cyano-4-(cyclopropylamino)imidazo[2,1-f][1,2,4]triazin-2-yl)amino)phenyl)-N,N-dimethylpiperazine-2-carboxamide] | 0.79
12 | CN(C)C(=O)C1CN(c2cc(C#N)cc(Nc3nc(NC4CC4)c4ncc(C#N)n4n3)c2Cl)CCN1C1COC1 (centres unmarked) [Example 564, 4-(2-chloro-5-cyano-3-((7-cyano-4-(cyclopropylamino)imidazo[2,1-f][1,2,4]triazin-2-yl)amino)phenyl)-N,N-dimethyl-1-(oxetan-3-yl)piperazine-2-carboxamide] | 4.86
13 | CN(C)C(=O)C1CN(c2cc(C#N)cc(Nc3nc(NC4CC4)c4ncc(C#N)n4n3)c2Cl)CCN1CC(F)F (centres unmarked) [Example 565, 4-(2-chloro-5-cyano-3-((7-cyano-4-(cyclopropylamino)imidazo[2,1-f][1,2,4]triazin-2-yl)amino)phenyl)-1-(2,2-difluoroethyl)-N,N-dimethylpiperazine-2-carboxamide] | 180
14 | N#Cc1cc(Nc2nc(NC3CC3)c3ncc(C#N)n3n2)c(Cl)cc1CCCO [Example 566, 2-((2-chloro-5-cyano-4-(3-hydroxypropyl)phenyl)amino)-4-(cyclopropylamino)imidazo[2,1-f][1,2,4]triazine-7-carbonitrile] | 0.1
15 | N#Cc1cc(Nc2nc(NC3CC3)c3ncc(C#N)n3n2)c(Cl)cc1CCCN1CCOCC1 [Example 567, 2-((2-chloro-5-cyano-4-(3-morpholinopropyl)phenyl)amino)-4-(cyclopropylamino)imidazo[2,1-f][1,2,4]triazine-7-carbonitrile] | 4.06
16 | CC(C)(O)C1CCN(CCCc2cc(Cl)c(Nc3nc(NC4CC4)c4ncc(C#N)n4n3)cc2C#N)CC1 [Example 568, 2-((2-chloro-5-cyano-4-(3-(4-(2-hydroxypropan-2-yl)piperidin-1-yl)propyl)phenyl)amino)-4-(cyclopropylamino)imidazo[2,1-f][1,2,4]triazine-7-carbonitrile] | 1.97
17 | N#Cc1cc(Nc2nc(NC3CC3)c3ncc(C#N)n3n2)c(Cl)cc1CCCN1CC(O)C1 [Example 569, 2-((2-chloro-5-cyano-4-(3-(3-hydroxyazetidin-1-yl)propyl)phenyl)amino)-4-(cyclopropylamino)imidazo[2,1-f][1,2,4]triazine-7-carbonitrile] | 0.7
18 | COC1CN(CCCc2cc(Cl)c(Nc3nc(NC4CC4)c4ncc(C#N)n4n3)cc2C#N)C1 [Example 570, 2-((2-chloro-5-cyano-4-(3-(3-methoxyazetidin-1-yl)propyl)phenyl)amino)-4-(cyclopropylamino)imidazo[2,1-f][1,2,4]triazine-7-carbonitrile] | 1.91
19 | COC1CN(CCCCc2cc(Cl)c(Nc3nc(NC4CC4)c4ncc(C#N)n4n3)cc2C#N)C1 [Example 571, 2-((2-chloro-5-cyano-4-(4-(3-methoxyazetidin-1-yl)butyl)phenyl)amino)-4-(cyclopropylamino)imidazo[2,1-f][1,2,4]triazine-7-carbonitrile] | 3.95
20 | N#Cc1cc(Nc2nc(NC3CC3)c3ncc(C#N)n3n2)c(Cl)cc1CCCCN1CCOCC1 [Example 572, 2-((2-chloro-5-cyano-4-(4-morpholinobutyl)phenyl)amino)-4-(cyclopropylamino)imidazo[2,1-f][1,2,4]triazine-7-carbonitrile] | 0.66
21 | CC(CN1CC(O)C1)c1cc(C#N)cc(Nc2nc(NC3CC3)c3ncc(C#N)n3n2)c1Cl (centres unmarked) [Example 573, 2-((2-chloro-5-cyano-3-(1-(3-hydroxyazetidin-1-yl)propan-2-yl)phenyl)amino)-4-(cyclopropylamino)imidazo[2,1-f][1,2,4]triazine-7-carbonitrile] | 1.3
22 | CC(CCO)c1cc(C#N)cc(Nc2nc(NC3CC3)c3ncc(C#N)n3n2)c1Cl (centres unmarked) [Example 574, 2-((2-chloro-5-cyano-3-(4-hydroxybutan-2-yl)phenyl)amino)-4-(cyclopropylamino)imidazo[2,1-f][1,2,4]triazine-7-carbonitrile] | 0.44
23 | CC(CCN1CC(O)C1)c1cc(C#N)cc(Nc2nc(NC3CC3)c3ncc(C#N)n3n2)c1Cl (centres unmarked) [Example 575, 2-((2-chloro-5-cyano-3-(4-(3-hydroxyazetidin-1-yl)butan-2-yl)phenyl)amino)-4-(cyclopropylamino)imidazo[2,1-f][1,2,4]triazine-7-carbonitrile] | 0.98
24 | CC(CCNCCC(F)(F)F)c1cc(C#N)cc(Nc2nc(NC3CC3)c3ncc(C#N)n3n2)c1Cl (centres unmarked) [Example 576, 2-((2-chloro-5-cyano-3-(4-((3,3,3-trifluoropropyl)amino)butan-2-yl)phenyl)amino)-4-(cyclopropylamino)imidazo[2,1-f][1,2,4]triazine-7-carbonitrile] | 1.59
25 | CN1CCN(CCCc2cc(C#N)cc(Nc3nc(NC4CC4)c4ncc(C#N)n4n3)c2Cl)CC1 [Example 577, 2-((2-chloro-5-cyano-3-(3-(4-methylpiperazin-1-yl)propyl)phenyl)amino)-4-(cyclopropylamino)imidazo[2,1-f][1,2,4]triazine-7-carbonitrile] | 0.72
26 | CCNc1nc(Nc2cc(C#N)cc(CCCN3CCN(C)CC3)c2Cl)nn2c(C#N)cnc12 [Example 578, 2-((2-chloro-5-cyano-3-(3-(4-methylpiperazin-1-yl)propyl)phenyl)amino)-4-(ethylamino)imidazo[2,1-f][1,2,4]triazine-7-carbonitrile] | 0.99
27 | COCCOC(=O)N1CCC(N2CCN(c3cc(C#N)cc(Nc4nc(NC5CC5)c5ncc(C#N)n5n4)c3Cl)CC2)C1 (centres unmarked) [Example 579, 2-methoxyethyl 3-[4-(2-chloro-5-cyano-3-{[7-cyano-4-(cyclopropylamino)imidazo[2,1-f][1,2,4]triazin-2-yl]amino}phenyl)piperazin-1-yl]pyrrolidine-1-carboxylate] | 4.1
28 | N#Cc1cc(Nc2nc(NC3CC3)c3ncc(C#N)n3n2)c(Cl)c(N2CCN(CC3(O)COC3)CC2)c1 [Example 580, 2-[(2-chloro-5-cyano-3-{4-[(3-hydroxyoxetan-3-yl)methyl]piperazin-1-yl}phenyl)amino]-4-(cyclopropylamino)imidazo [2,1-f][1,2,4]triazine-7-carbonitrile] | 3.2
29 | N#Cc1cc(Nc2nc(NC3CC3)c3ncc(C#N)n3n2)c(Cl)c(N2CCN(C3CCNC3=O)CC2)c1 (centres unmarked) [Example 581, 2-({2-chloro-5-cyano-3-[4-(2-oxopyrrolidin-3-yl)piperazin-1-yl]phenyl}amino)-4-(cyclopropylamino)imidazo [2,1-f][1,2,4]triazine-7-carbonitrile] | 3.59
